Assay results taken from patent US10800792B2, “Inhibitors of Bruton's tyrosine kinase and method of their use” (JANSSEN PHARMACEUTICA NV, priority 2015, dated 2020).

Molecular target: unphosphorylated-BTK kinase domain (UP-BTK), GST-tagged human BTK (389-659aa) (Homo sapiens (Human), UniProt Q06187)
Test: BTK kinase Lanthascreen binding assay
Conditions: pIC50 = negative log of the IC50 in molar, 60 minutes incubation, 50 nM Tracer 236; for IC50: read-out: BTK_I_binding pIC50 (converted)
Outline: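 Values are pIC50, i.e. negative log of IC50 in molar, derived from concentration–response fitting. Each compound competes with a fluorescently labelled tracer for the unphosphorylated kinase domain.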

Chain of unphosphorylated-BTK kinase domain (UP-BTK), GST-tagged human BTK (389-659aa) (Q06187 389-659): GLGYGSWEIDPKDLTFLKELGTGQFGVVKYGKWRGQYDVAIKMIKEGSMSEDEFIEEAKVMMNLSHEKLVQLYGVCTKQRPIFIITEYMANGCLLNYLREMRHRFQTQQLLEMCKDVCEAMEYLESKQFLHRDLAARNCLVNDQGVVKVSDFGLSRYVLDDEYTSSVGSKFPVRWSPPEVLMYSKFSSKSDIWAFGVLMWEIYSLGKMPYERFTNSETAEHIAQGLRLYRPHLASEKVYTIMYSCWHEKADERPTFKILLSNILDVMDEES

Row | BTK_I_binding pIC50 | IC50 [nM] | SMILES
1 | 6.6 |  | Cc1cc(Oc2ccccc2)ccc1N1C(=O)Nc2c(C(=O)N[C@@H]3C[C@@H](F)CN(C)C3)sc3nccc1c23 [Example 160, N-((3R,5R)-5-Fluoro-1-methylpiperidin-3-yl)-5-(2-methyl-4-phenoxyphenyl)-4-oxo-4,5-dihydro-3H-1-thia-3,5,8-triazaacenaphthylene-2-carboxamide]
2 | 7.7 |  | C#CC(=O)N1CCC[C@@H](NC(=O)c2sc3nccc4c3c2NC(=O)N4c2ccc(Oc3ccccc3)cc2C)C1 [Example 161, (R)-5-(2-Methyl-4-phenoxyphenyl)-4-oxo-N-(1-propioloylpiperidin-3-yl)-4,5-dihydro-3H-1-thia-3,5,8-triazaacenaphthylene-2-carboxamide]
3 | 6.8 |  | Cc1cc(Oc2ccccc2)ccc1N1C(=O)Nc2c(C(=O)NC3CCC(=O)N(C)C3)sc3nccc1c23 (centres unmarked) [Example 162, 5-(2-Methyl-4-phenoxyphenyl)-N-(1-methyl-6-oxopiperidin-3-yl)-4-oxo-4,5-dihydro-3H-1-thia-3,5,8-triazaacenaphthylene-2-carboxamide]
4 | 7.2 |  | Cc1cc(Oc2ccccc2)ccc1N1C(=O)Nc2c(C(=O)N[C@@H]3CCCN(C(=O)CCN)C3)sc3nccc1c23 [Example 163, (R)—N-(1-(3-Aminopropanoyl)piperidin-3-yl)-5-(2-methyl-4-phenoxyphenyl)-4-oxo-4,5-dihydro-3H-1-thia-3,5,8-triazaacenaphthylene-2-carboxamide]
5 | 6.8 |  | Cc1cc(Oc2ccccc2)ccc1N1C(=O)Nc2c(C(=O)N[C@@H]3C[C@H](F)CN(C)C3)sc3nccc1c23 [Example 164, N-((3R,5S)-5-Fluoro-1-methylpiperidin-3-yl)-5-(2-methyl-4-phenoxyphenyl)-4-oxo-4,5-dihydro-3H-1-thia-3,5,8-triazaacenaphthylene-2-carboxamide]
6 | 6.6 |  | Cc1cc(Oc2ccccc2)ccc1N1C(=O)Nc2c(C(=O)NC3CCN(C)CC3C)sc3nccc1c23 (centres unmarked) [Example 165, N-(1,3-Dimethylpiperidin-4-yl)-5-(2-methyl-4-phenoxyphenyl)-4-oxo-4,5-dihydro-3H-1-thia-3,5,8-triazaacenaphthylene-2-carboxamide]
7 | 6.9 |  | Cc1cc(Oc2ccccc2)ccc1N1C(=O)Nc2c(C(=O)NC3CCNC(=O)C3)sc3nccc1c23 (centres unmarked) [Example 166, 5-(2-Methyl-4-phenoxyphenyl)-4-oxo-N-(2-oxopiperidin-4-yl)-4,5-dihydro-3H-1-thia-3,5,8-triazaacenaphthylene-2-carboxamide]
8 | 7.0 |  | Cc1cc(Oc2ccccc2)ccc1N1C(=O)Nc2c(C(=O)N[C@H]3CNC[C@@H](F)C3)sc3nccc1c23 [Example 167, N-((3R,5S)-5-fluoropiperidin-3-yl)-5-(2-methyl-4-phenoxyphenyl)-4-oxo-4,5-dihydro-3H-1-thia-3,5,8-triazaacenaphthylene-2-carboxamide]
9 | 6.8 |  | Cc1cc(Oc2ccccc2)ccc1N1C(=O)Nc2c(C(=O)N[C@@H]3C[C@@H](O)CN(C)C3)sc3nccc1c23 [Example 168, N-((3R,5R)-5-Hydroxy-1-methylpiperidin-3-yl)-5-(2-methyl-4-phenoxyphenyl)-4-oxo-4,5-dihydro-3H-1-thia-3,5,8-triazaacenaphthylene-2-carboxamide]
10 | 7.0 |  | CCc1ccccc1Oc1ccc(N2C(=O)Nc3c(C(=O)N[C@@H]4CCCN(C)C4)sc4nccc2c34)c(C)c1 [Example 170, (R)-5-(4-(2-Ethylphenoxy)-2-methylphenyl)-N-(1-methylpiperidin-3-yl)-4-oxo-4,5-dihydro-3H-1-thia-3,5,8-triazaacenaphthylene-2-carboxamide]
11 | 6.7 |  | Cc1cc(Oc2ccccc2)ccc1N1C(=O)Nc2c(C(=O)NC3CCNCC3C)sc3nccc1c23 (centres unmarked) [Example 172, 5-(2-Methyl-4-phenoxyphenyl)-N-(3-methylpiperidin-4-yl)-4-oxo-4,5-dihydro-3H-1-thia-3,5,8-triazaacenaphthylene-2-carboxamide]
12 | 6.6 |  | Cc1cc(Oc2ccccc2)ccc1N1C(=O)Nc2c(C(=O)N[C@H]3CNCC(F)(F)C3)sc3nccc1c23 [Example 174, (R)—N-(5,5-Difluoropiperidin-3-yl)-5-(2-methyl-4-phenoxyphenyl)-4-oxo-4,5-dihydro-3H-1-thia-3,5,8-triazaacenaphthylene-2-carboxamide]
13 | 7.6 |  | N#C/C(=C\C1CC1)C(=O)N1CCC[C@@H](NC(=O)c2sc3nccc4c3c2NC(=O)N4c2c(F)cc(Oc3ccccc3)cc2F)C1 [Example 175, (R,E)-N-(1-(2-Cyano-3-cyclopropylacryloyl)piperidin-3-yl)-5-(2,6-difluoro-4-phenoxyphenyl)-4-oxo-4,5-dihydro-3H-1-thia-3,5,8-triazaacenaphthylene-2-carboxamide]
14 |  | 63.1 | COc1ccc(N2C(=O)Nc3c(C(=O)N[C@@H]4CCCN(C(=O)/C(C#N)=[13CH]\C5CC5)C4)sc4nccc2c34)c(C)c1 [Example 176, ^13C—(R,Z)—N-(1-(2-Cyano-3-cyclopropylacryloyl)piperidin-3-yl)-5-(4-methoxy-2-methylphenyl)-4-oxo-4,5-dihydro-3H-1-thia-3,5,8-triazaacenaphthylene-2-carboxamide]
15 |  | 39.8 | COc1ccc(N2C(=O)Nc3c(C(=O)N[C@@H]4CCCN(C(=O)/C(C#N)=[13CH]/C5CC5)C4)sc4nccc2c34)c(C)c1 [Example 177, ^13C—(R,E)-N-(1-(2-Cyano-3-cyclopropylacryloyl)piperidin-3-yl)-5-(4-methoxy-2-methylphenyl)-4-oxo-4,5-dihydro-3H-1-thia-3,5,8-triazaacenaphthylene-2-carboxamide]
16 | 7.0 |  | Cc1cc(Oc2ccccc2)ccc1N1C(=O)Nc2c(C(=O)N[C@H]3CNC[C@H](O)C3)sc3nccc1c23 [Example 179, N-((3R,5R)-5-Hydroxypiperidin-3-yl)-5-(2-methyl-4-phenoxyphenyl)-4-oxo-4,5-dihydro-3H-1-thia-3,5,8-triazaacenaphthylene-2-carboxamide]
17 | 7.1 |  | N#CCC(=O)N1CCC[C@@H](NC(=O)c2sc3nccc4c3c2NC(=O)N4c2ccc(Oc3ccccc3)cc2)C1 [Example 181, (R)—N-(1-(2-Cyanoacetyl)piperidin-3-yl)-4-oxo-5-(4-phenoxyphenyl)-4,5-dihydro-3H-1-thia-3,5,8-triazaacenaphthylene-2-carboxamide]
18 | 6.7 |  | CN1CCC[C@@H](NC(=O)c2sc3nccc4c3c2NC(=O)N4c2ccc(Oc3ccccc3)cc2)C1 [Example 182, (R)—N-(1-Methylpiperidin-3-yl)-4-oxo-5-(4-phenoxyphenyl)-4,5-dihydro-3H-1-thia-3,5,8-triazaacenaphthylene-2-carboxamide]
19 | 7.5 |  | Cc1cc(OC2CC2)ccc1N1C(=O)Nc2c(C(=O)N[C@@H]3CCCN(C(=O)/C(C#N)=C/C4CC4)C3)sc3nccc1c23 [Example 185, (R,E)-N-(1-(2-Cyano-3-cyclopropylacryloyl)piperidin-3-yl)-5-(4-cyclopropoxy-2-methylphenyl)-4-oxo-4,5-dihydro-3H-1-thia-3,5,8-triazaacenaphthylene-2-carboxamide]
20 | 6.8 |  | Cc1cc(Oc2ccccc2)ccc1N1C(=O)Nc2c(C(=O)N[C@H]3CN(C)C[C@@H]3F)sc3nccc1c23 [Example 186, N-((3S,4S)-4-Fluoro-1-methylpyrrolidin-3-yl)-5-(2-methyl-4-phenoxyphenyl)-4-oxo-4,5-dihydro-3H-1-thia-3,5,8-triazaacenaphthylene-2-carboxamide]
21 | 6.7 |  | Cc1cc(Oc2ccccc2)ccc1N1C(=O)Nc2c(C(=O)NC3CCCN(C)CC3)sc3nccc1c23 (centres unmarked) [Example 187, 5-(2-Methyl-4-phenoxyphenyl)-N-(1-methylazepan-4-yl)-4-oxo-4,5-dihydro-3H-1-thia-3,5,8-triazaacenaphthylene-2-carboxamide]
22 | 6.7 |  | COCC(C)(C)C(=O)N1CCC[C@@H](NC(=O)c2sc3nccc4c3c2NC(=O)N4c2ccc(Oc3ccccc3)cc2C)C1 [Example 188, (R)—N-(1-(3-Methoxy-2,2-dimethylpropanol)piperidin-3-yl)-5-(2-methyl-4-phenoxyphenyl)-4-oxo-4,5-dihydro-3H-1-thia-3,5,8-triazaacenaphthylene-2-carboxamide]
23 | 6.6 |  | Cc1cc(Oc2ccccc2)ccc1N1C(=O)Nc2c(C(=O)NC3CCCN(C#N)CC3)sc3nccc1c23 (centres unmarked) [Example 189, N-(1-Cyanoazepan-4-yl)-5-(2-methyl-4-phenoxyphenyl)-4-oxo-4,5-dihydro-3H-1-thia-3,5,8-triazaacenaphthylene-2-carboxamide]
24 | 7.0 |  | COC[C@@H](OC)C(=O)N1CCC[C@@H](NC(=O)c2sc3nccc4c3c2NC(=O)N4c2ccc(Oc3ccccc3)cc2C)C1 [Example 190, N—((R)-1-((R)-2,3-Dimethoxypropanoyl)piperidin-3-yl)-5-(2-methyl-4-phenoxyphenyl)-4-oxo-4,5-dihydro-3H-1-thia-3,5,8-triazaacenaphthylene-2-carboxamide]

Row | SMILES | BTK_I_binding pIC50 | IC50 [nM]
25 | Cc1cc(Oc2ccccc2)ccc1N1C(=O)Nc2c(C(=O)NC3CC4CCN3CC4)sc3nccc1c23 (centres unmarked) [Example 171, 5-(2-Methyl-4-phenoxyphenyl)-4-oxo-N-(quinuclidin-2-yl)-4,5-dihydro-3H-1-thia-3,5,8-triazaacenaphthylene-2-carboxamide] | 7.0 | 
26 | Cc1cc(OC2CCCCC2)ccc1N1C(=O)Nc2c(C(=O)N[C@@H]3CCCN(C(=O)/C(C#N)=C/C4CC4)C3)sc3nccc1c23 [Example 178, (R,E)-N-(1-(2-Cyano-3-cyclopropylacryloyl)piperidin-3-yl)-5-(4-(cyclohexyloxy)-2-methylphenyl)-4-oxo-4,5-dihydro-3H-1-thia-3,5,8-triazaacenaphthylene-2-carboxamide] |  | 100
